In paper PMC6022709 (BMC Research Notes, 2018):
Values after ≈ are worked out from the molar mass of the structure shown. Numbered stars: 1 amine (or outer) side, 2 acyl side, 3 side chain; on linkers, the order of the positions; unused ones are H or OH. Square brackets hold non-standard residues; d marks the D form. Peptide text beside a SMILES is read from it. ξ: configuration not given here. X1 = CC[C@H](C)[C@@H](C(=O)[*:2])N(O)[*:1]; ξPiz(1,6-dehydro) = O=C(O)C1CCC=NN1; ξN(OH)Ile(3ξ) = CCC(C)C(NO)C(=O)O; dNMeF = CN[C@H](Cc1ccccc1)C(=O)O; NMeF = CN[CH](Cc1ccccc1)C(=O)O; X2 = O=C(C1CCCNN1[*:1])[*:2]; Pip = O=C(O)[C@@H]1CCCCN1; dPip = O=C(O)[C@H]1CCCCN1

Assays:
[1] = test system: M. tuberculosis H37Rv-LP (ATCC 25618) expressing a red fluorescent protein; conditions: for MIC90: H37Rv
[2] = test system: M. tuberculosis H37Rv-LP (ATCC 25618) expressing a red fluorescent protein; assay: microbe, parasite or virus in culture; conditions: Mycobacterium tuberculosis
[3] = test system: M. tuberculosis WT; assay type: cell-based, Mycobacterium tuberculosis

Structure (SMILES)	MIC90 [1] [µM]	further results
CCCC1C(=O)N2CCCC2C(=O)NC(CC(C)C)C(=O)N(O)C(CC(C)C)C(=O)N2NCCCC2C(=O)N2NCCCC2C(=O)N1C (stereo not drawn) [Compound 16]	> 20	
CC[C@H](C)[C@H]1C(=O)N2CCCC[C@@H]2C(=O)N2CCCC[C@H]2C(=O)N(C)[C@H](Cc2ccccc2)C(=O)N2CCC[C@H]2C(=O)N[C@H](Cc2ccccc2)C(=O)N1O [Compound 15] (cyclo([dNMeF]P[dF][X1][dPip][Pip]))	> 20	anti-tubercular activity (in words) [1]: loss of anti-tubercular activity
CCC(C)C1C(=O)N2CCCC2C(=O)NC(CC(C)C)C(=O)N(O)C(CC(C)C)C(=O)N2NCCCC2C(=O)N2NCCCC2C(=O)N1C (stereo not drawn) [Compound 4]	7.3 ± 1.9 (≈ 5.04 µg/mL)	
CCC(C)C1NC(=O)C(Cc2ccccc2)NC(=O)C2CCCN2C(=O)C(Cc2ccccc2)N(C)C(=O)C2CCC=NN2C(=O)C2CCC=NN2C1=O (stereo not drawn) [Compound 7] (cyclo([ξPiz(1,6-dehydro)][ξPiz(1,6-dehydro)][NMeF]PFI); configuration not given here)	> 20	
CO[C@H]1/C=C/O[C@@]2(C)Oc3c(C)c(O)c4c(O)c(c(/C=N/N5CCN(C)CC5)c(O)c4c3C2=O)NC(=O)/C(C)=C\C=C\[C@H](C)[C@H](O)[C@@H](C)[C@@H](O)[C@@H](C)[C@H](OC(C)=O)[C@@H]1C [Rifampicin]		MIC [2]: 0.0077 µM (≈ 0.00634 µg/mL)
CC[C@H](C)[C@H]1C(=O)N2NCCC[C@@H]2C(=O)N2NCCC[C@H]2C(=O)N(C)[C@H](Cc2ccccc2)C(=O)N2CCC[C@H]2C(=O)N[C@H](Cc2ccccc2)C(=O)N1CC(C)=O [Compound 5]	8.2 ± 1.2 (≈ 6.55 µg/mL)	
CC(C)CC1C(=O)N2NCCCC2C(=O)N2NCCCC2C(=O)N(C)C(Cc2ccccc2)C(=O)N2CCCC2C(=O)NC(Cc2ccccc2)C(=O)N1O (stereo not drawn) [Compound 1, cyclo[N-(Me)Phe-Pro-Phe-N-(OH)Leu-Piz-Piz]]	2.3 ± 0.5 (≈ 1.75 µg/mL)	MIC99 [3]: 1.6 µM (≈ 1.21 µg/mL)
CCC(C)C1C(=O)N2NCCCC2C(=O)N2NCCCC2C(=O)N(C)C(Cc2ccccc2)C(=O)N2CCCC2C(=O)NC(Cc2ccccc2)C(=O)N1O (stereo not drawn) [Compound 2] (cyclo([ξN(OH)Ile(3ξ)][X2][X2][NMeF]PF); configuration not given here)	2.8 ± 0.8 (≈ 2.12 µg/mL)	
CC(C)CC1C(=O)N2NCCCC2C(=O)N2NCCCC2C(=O)N(C)C(Cc2ccccc2)C(=O)N2CCCC2C(=O)NC(C(C)C)C(=O)N1O (stereo not drawn) [Compound 3]	8.9 ± 1.8 (≈ 6.33 µg/mL)	MIC99 [3]: 0.8 µM (≈ 0.569 µg/mL)
